#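 1) Cells in 96-well plates. 2) Compound, 48 h, 5 concentrations. 3) Linear interpolation between surrounding doses. 4) Unreached endpoint = highest concentration. At the GI50, growth is halved.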 Active and inactive are the calls of the source. Cut-off read from the data, not from the text of the source: active = GI50 up to about 1.1 µM and inactive = higher.
# Legend:
# Experiment in all cases: inhibition of tumour cell growth, NCI panel, 48 h
# [1] = test system: KM12
# [2] = test system: HL-60
# [3] = test system: SF-268
# [4] = test system: SNB-19
# [5] = test system: CCRF-CEM
# [6] = test system: M14
# [7] = test system: LOX IMVI
# [8] = test system: HOP-62
# [9] = test system: A549
# [10] = test system: SW-620
# [11] = test system: NCI-H522
# [12] = test system: UACC-257
# [13] = test system: IGROV-1
# [14] = test system: RXF 393
# [15] = test system: OVCAR-5
# [16] = test system: T47D
# [17] = test system: SR
# [18] = test system: SF-295
# [19] = test system: NCI/ADR-RES
# [20] = test system: SK-MEL-28
Compound,GI50 [1],GI50 [2],GI50 [3],GI50 [4],GI50 [5],GI50 [6],GI50 [7],GI50 [8],GI50 [9],GI50 [10],GI50 [11],GI50 [12],GI50 [13],GI50 [14],GI50 [15],GI50 [16],GI50 [17],GI50 [18],GI50 [19],GI50 [20]
O=[N+]([O-])c1ccc(C(O)(C#CCN2CCCC2)c2ccccc2)cc1 (stereo not given),41.8 µM (inactive),18.4 µM (inactive),27 µM (inactive),98.2 µM (inactive),24.5 µM (inactive),17.5 µM (inactive),16.2 µM (inactive),92.5 µM (inactive),81.5 µM (inactive),98.9 µM (inactive),22.4 µM (inactive),25.6 µM (inactive),25.8 µM (inactive),57.9 µM (inactive),57.9 µM (inactive),28.5 µM (inactive),23.7 µM (inactive),30.4 µM (inactive),69.5 µM (inactive),17.6 µM (inactive)
CO/N=C(\C(=O)O/C(=N/C1CCCCC1)NC1CCCCC1)c1csc(NC(c2ccccc2)(c2ccccc2)c2ccccc2)n1,> 10 µM (inactive),> 10 µM (inactive),> 10 µM (inactive),> 10 µM (inactive),> 10 µM (inactive),> 10 µM (inactive),9.46 µM (inactive),> 10 µM (inactive),> 10 µM (inactive),> 10 µM (inactive),> 10 µM (inactive),> 10 µM (inactive),> 10 µM (inactive),5.05 µM (inactive),> 10 µM (inactive),> 10 µM (inactive),> 10 µM (inactive),> 10 µM (inactive),> 10 µM (inactive),> 10 µM (inactive)
Sc1nc(S)nc(Oc2ccc(Cl)c(Cl)c2)n1,14.6 µM (inactive),40 µM (inactive),> 52.4 µM (inactive),> 65.2 µM (inactive),23.2 µM (inactive),43.5 µM (inactive),18.1 µM (inactive),40 µM (inactive),22.4 µM (inactive),> 61.4 µM (inactive),18.5 µM (inactive),43.7 µM (inactive),> 56.1 µM (inactive),< 0.01 µM (active),59.2 µM (inactive),24.4 µM (inactive),30.1 µM (inactive),59 µM (inactive),38 µM (inactive),> 54 µM (inactive)
Cc1cc(S(=O)(=O)Nc2nc(N)nc(N(C)C)n2)c(SCC(=O)O)cc1Cl,> 10 µM (inactive),> 10 µM (inactive),> 10 µM (inactive),> 10 µM (inactive),> 10 µM (inactive),> 10 µM (inactive),> 10 µM (inactive),> 10 µM (inactive),> 10 µM (inactive),> 10 µM (inactive),> 10 µM (inactive),> 10 µM (inactive),> 10 µM (inactive),> 10 µM (inactive),> 10 µM (inactive),> 10 µM (inactive),> 10 µM (inactive),> 10 µM (inactive),> 10 µM (inactive),> 10 µM (inactive)

# — ChEMBL document CHEMBL1201862, “PubChem BioAssay data set” (2004)
